# Data as given in patent US9023789B2, “Amylin analogs and pharmaceutical compositions thereof” (Novo Nordisk A/S, priority 2012, dated 2015).
# Like-named read-outs stand apart in the source and are kept apart here. Numbered stars: 1 amine (or outer) side, 2 acyl side, 3 side chain; on linkers, the order of the positions; unused ones are H or OH. Bridge positions count the residues as written; N and C are the ends. Side chains are listed from the residue outwards. Peptide text beside a SMILES is read from it. * marks the point of attachment. C20 diacid = O=C(O)CCCCCCCCCCCCCCCCCCC(=O)*; γGlu = O=C(O)[C@H](CCC(=O)[*:2])N[*:1]
# Experiments:
# Sprague Dawley (SD) rats = assay: ASSAY (I) efficacy testing on appetite (food intake) using an ad libitum fed rat model; assay type: in vivo; settings: rat
# From the text: Sprague Dawley (SD) rats from Taconic Europe, Denmark are used for the experiments. The rats have a body weight 200-250 g at the start of experiment. The rats arrive at least 10-14 days before start of experiment to allow acclimatization to experimental settings. During this period the animals are handled at least 2 times. After arrival rats are housed individually for one week in a reversed light/dark phase (meaning that lights are off during daytime and on during nighttime) for two weeks. Since rats are normally active and eat their major part of their daily food intake during the dark period, rats are dosed in the morning right before lights are turned off. This set-up results in the lowest data variation and highst test sensitivity. The experiment is conducted in the rats' home cages and rats have free access to food and water throughout the acclimatization period and the experiment period. Each dose of derivative is tested in a group of 5-8 rats. A vehicle group of 6-8 rats is included in each set of testing. Rats are dosed once according to body weight with a 0.01-3 mg/kg solution administered intraperitoneally (ip), orally (po) or subcutaneously (sc). The time of dosing is recorded for each group. After dosing, the rats are returned to their home cages, where they then have access to food and water. The food consumption is recorded individually continuously by online registration or manually every hour for 7 hours, and then after 24 h and sometimes 48 h. At the end of the experimental session, the animals are euthanized.
# The individual data are recorded in Microsoft excel sheets. Outliers are excluded after applying the Grubbs statistical evaluation test for outliers, and the result is presented graphically using the GraphPad Prism program.
# [1] = ASSAY (III) ThT fibrillation assay for physical stability; assay type: physicochemical
# In short: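 Formulations with 1 μM ThT, pH adjusted as required, incubated at 37 °C with 960 rpm orbital shaking; fluorescence (ex 444/em 485 nm) read every 20 min. Fibrillation reported as mean ThT fluorescence ± SD of 4–8 replicates at time points; polypeptide concentration measured by reverse-phase HPLC before and after, post-centrifugation.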
# [2] = ASSAY (IV) determination of solubility; assay type: physicochemical
# In short: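 Dissolve polypeptide in water ([…] stock); combine 1:1 with each 100 mM buffer (glycylglycine pH 3.0/4.0/5.0; bistrispropane pH 6.0/6.5/7.0/7.5/8.0); hold 18 hours at room temperature; centrifuge; quantify polypeptide by UPLC.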
# [3] = bistrispropane buffer, pH 6.5, read-out: Solubility pH 6.5 Concentration
# [4] = bistrispropane buffer, pH 7.5, read-out: Solubility pH 7.5 Concentration
# [5] = bistrispropane buffer, pH 6.0, read-out: Solubility pH 6.0 Concentration
# [6] = bistrispropane buffer, pH 7.0, read-out: Solubility pH 7.0 Concentration
# [7] = bistrispropane buffer, pH 8.0, read-out: Solubility pH 8.0 Concentration
# [8] = glycylglycine buffer, pH 3.0, read-out: Solubility pH 3.0 Concentration
# [9] = glycylglycine buffer, pH 4.0, read-out: Solubility pH 4.0 Concentration
# [10] = glycylglycine buffer, pH 5.0, read-out: Solubility pH 5.0 Concentration
SMILES,"Food intake reduction 0-24 h 3 nmol/kg (%) (Sprague Dawley (SD) rats; 3 nmol/kg, 0-24 h)","Food intake reduction 24-48 h 3 nmol/kg (%) (Sprague Dawley (SD) rats; 3 nmol/kg, 24-48 h)",Food intake reduction 0-24 h 30 nmol/kg (%) (Sprague Dawley (SD) rats; 0-24 h),Food intake reduction 24-48 h 30 nmol/kg (%) (Sprague Dawley (SD) rats; 24-48 h),ThT pH 4.0 lag time (h) [1],"solubility at 18 h [2, 3]","solubility at 18 h [2, 4]","solubility at 18 h [2, 5]","solubility at 18 h [2, 6]","solubility at 18 h [2, 7]","solubility at 18 h [2, 8]","solubility at 18 h [2, 9]","solubility at 18 h [2, 10]"
CC[C@H](C)[C@H](NC(=O)[C@H](C)NC(=O)CNC(=O)[C@H](Cc1ccccc1)NC(=O)[C@H](CC(N)=O)NC(=O)[C@@H]1CCCN1C(=O)[C@H](CO)NC(=O)[C@H](CO)NC(=O)[C@H](Cc1c[nH]cn1)NC(=O)[C@H](CCCNC(=N)N)NC(=O)[C@H](CC(C)C)NC(=O)[C@H](Cc1ccccc1)NC(=O)[C@H](CC(=O)O)NC(=O)[C@H](C)NC(=O)[C@H](CC(C)C)NC(=O)[C@H](CCCNC(=N)N)NC(=O)[C@H](CCC(N)=O)NC(=O)[C@@H](NC(=O)[C@H](C)NC(=O)[C@@H]1CSSC[C@H](NC(=O)[C@@H](N)CCCCNC(=O)CC[C@H](NC(=O)CC[C@H](NC(=O)CCCCCCCCCCCCCCCCCCC(=O)O)C(=O)O)C(=O)O)C(=O)N[C@@H](CC(N)=O)C(=O)N[C@@H]([C@@H](C)O)C(=O)N[C@@H](C)C(=O)N[C@@H]([C@@H](C)O)C(=O)N1)[C@@H](C)O)C(=O)N1CCC[C@H]1C(=O)N[C@@H](CO)C(=O)N[C@@H](CO)C(=O)N[C@H](C(=O)N[C@@H](CC(N)=O)C(=O)N[C@H](C(=O)NCC(=O)N[C@@H](CO)C(=O)N[C@@H](CC(=O)O)C(=O)N[C@H](C(=O)N[C@@H](Cc1ccc(O)cc1)C(N)=O)[C@@H](C)O)C(C)C)[C@@H](C)O [Example 2] (H-K([γGlu-γGlu-C20 diacid])CNTATCATQRLADFLRHSSPNFGAIPSSTNVGSDTY-NH2; disulfide 2-7; N-terminus assumed),39%,10%,72%,62%,10 h,190 µM,≥ 200 µM,≥ 200 µM,≥ 200 µM,≥ 200 µM,≥ 200 µM,≥ 200 µM,≥ 200 µM
CC[C@H](C)[C@H](NC(=O)[C@H](C)NC(=O)CNC(=O)[C@H](Cc1ccccc1)NC(=O)[C@H](CC(N)=O)NC(=O)[C@@H]1CCCN1C(=O)[C@H](CO)NC(=O)[C@H](CO)NC(=O)[C@H](Cc1c[nH]cn1)NC(=O)[C@H](CCCNC(=N)N)NC(=O)[C@H](CC(C)C)NC(=O)[C@H](Cc1ccccc1)NC(=O)[C@H](CC(N)=O)NC(=O)[C@H](C)NC(=O)[C@H](CC(C)C)NC(=O)[C@H](CCCNC(=N)N)NC(=O)[C@H](CCC(N)=O)NC(=O)[C@@H](NC(=O)[C@H](C)NC(=O)[C@@H]1CSSC[C@H](NC(=O)[C@H](CCCCN)NC(=O)COCCOCCNC(=O)COCCOCCNC(=O)CC[C@H](NC(=O)CCCCCCCCCCCCCCCCCCC(=O)O)C(=O)O)C(=O)N[C@@H](CC(N)=O)C(=O)N[C@@H]([C@@H](C)O)C(=O)N[C@@H](C)C(=O)N[C@@H]([C@@H](C)O)C(=O)N1)[C@@H](C)O)C(=O)N1CCC[C@H]1C(=O)N[C@@H](CO)C(=O)N[C@@H](CO)C(=O)N[C@H](C(=O)N[C@@H](CC(N)=O)C(=O)N[C@H](C(=O)NCC(=O)N[C@@H](CO)C(=O)N[C@@H](CC(N)=O)C(=O)N[C@H](C(=O)N[C@@H](Cc1ccc(O)cc1)C(N)=O)[C@@H](C)O)C(C)C)[C@@H](C)O [Example 24],,,22%,1%,34 h,≥ 200 µM,≥ 200 µM,≥ 200 µM,≥ 200 µM,≥ 200 µM,≥ 200 µM,≥ 200 µM,≥ 200 µM
CC[C@H](C)[C@H](NC(=O)[C@H](C)NC(=O)CNC(=O)[C@H](Cc1ccccc1)NC(=O)[C@H](CC(N)=O)NC(=O)[C@@H]1CCCN1C(=O)[C@H](CO)NC(=O)[C@H](CO)NC(=O)[C@H](Cc1c[nH]cn1)NC(=O)[C@H](CCCNC(=N)N)NC(=O)[C@H](CC(C)C)NC(=O)[C@H](Cc1ccccc1)NC(=O)[C@H](CC(N)=O)NC(=O)[C@H](C)NC(=O)[C@H](CC(C)C)NC(=O)[C@H](CCCNC(=N)N)NC(=O)[C@H](CCC(N)=O)NC(=O)[C@@H](NC(=O)[C@H](C)NC(=O)[C@@H]1CSSC[C@H](NC(=O)[C@H](CCCCN)NC(=O)CC[C@H](NC(=O)CCCCCCCCCCCCCCCCCCC(=O)O)C(=O)O)C(=O)N[C@@H](CC(N)=O)C(=O)N[C@@H]([C@@H](C)O)C(=O)N[C@@H](C)C(=O)N[C@@H]([C@@H](C)O)C(=O)N1)[C@@H](C)O)C(=O)N1CCC[C@H]1C(=O)N[C@@H](CO)C(=O)N[C@@H](CO)C(=O)N[C@H](C(=O)N1CCC[C@H]1C(=O)N[C@H](C(=O)NCC(=O)N[C@@H](CO)C(=O)N[C@@H](CCC(=O)O)C(=O)N[C@H](C(=O)N[C@@H](Cc1ccc(O)cc1)C(N)=O)[C@@H](C)O)C(C)C)[C@@H](C)O [Example 28] ({C20 diacid-γGlu}-KCNTATCATQRLANFLRHSSPNFGAIPSSTPVGSETY-NH2; disulfide 2-7 (inferred)),,,49%,38%,40 h,≥ 200 µM,≥ 200 µM,≥ 200 µM,≥ 200 µM,≥ 200 µM,≥ 200 µM,≥ 200 µM,≥ 200 µM
CC[C@H](C)[C@H](NC(=O)[C@H](C)NC(=O)CNC(=O)[C@H](Cc1ccccc1)NC(=O)[C@H](CC(N)=O)NC(=O)[C@@H]1CCCN1C(=O)[C@H](CO)NC(=O)[C@H](CO)NC(=O)[C@H](Cc1c[nH]cn1)NC(=O)[C@H](CCCNC(=N)N)NC(=O)[C@H](CC(C)C)NC(=O)[C@H](Cc1ccccc1)NC(=O)[C@H](Cc1c[nH]cn1)NC(=O)[C@H](C)NC(=O)[C@H](CC(C)C)NC(=O)[C@H](CCCNC(=N)N)NC(=O)[C@H](CCC(N)=O)NC(=O)[C@@H](NC(=O)[C@H](C)NC(=O)[C@@H]1CSSC[C@H](NC(=O)[C@H](CCCCN)NC(=O)CC[C@H](NC(=O)CCCCCCCCCCCCCCCCCCC(=O)O)C(=O)O)C(=O)N[C@@H](CC(N)=O)C(=O)N[C@@H]([C@@H](C)O)C(=O)N[C@@H](C)C(=O)N[C@@H]([C@@H](C)O)C(=O)N1)[C@@H](C)O)C(=O)N1CCC[C@H]1C(=O)N[C@@H](CO)C(=O)N[C@@H](CO)C(=O)N[C@H](C(=O)N[C@@H](CC(N)=O)C(=O)N[C@H](C(=O)NCC(=O)N[C@@H](CO)C(=O)N[C@@H](CCC(=O)O)C(=O)N[C@H](C(=O)N[C@@H](Cc1ccc(O)cc1)C(N)=O)[C@@H](C)O)C(C)C)[C@@H](C)O [Example 30] ({C20 diacid-γGlu}-KCNTATCATQRLAHFLRHSSPNFGAIPSSTNVGSETY-NH2; disulfide 2-7),,,41%,17%,16 h,≥ 200 µM,≥ 200 µM,≥ 200 µM,≥ 200 µM,≥ 200 µM,≥ 200 µM,≥ 200 µM,≥ 200 µM
CC[C@H](C)[C@H](NC(=O)[C@H](C)NC(=O)CNC(=O)[C@H](Cc1ccccc1)NC(=O)[C@H](CC(N)=O)NC(=O)[C@@H]1CCCN1C(=O)[C@H](CO)NC(=O)[C@H](CO)NC(=O)[C@H](Cc1c[nH]cn1)NC(=O)[C@H](CCCNC(=N)N)NC(=O)[C@H](CC(C)C)NC(=O)[C@H](Cc1ccccc1)NC(=O)[C@H](CCC(=O)O)NC(=O)[C@H](C)NC(=O)[C@H](CC(C)C)NC(=O)[C@H](CCCNC(=N)N)NC(=O)[C@H](CCC(N)=O)NC(=O)[C@@H](NC(=O)[C@H](C)NC(=O)[C@@H]1CSSC[C@H](NC(=O)[C@H](CCCCN)NC(=O)CC[C@H](NC(=O)CCCCCCCCCCCCCCCCCCC(=O)O)C(=O)O)C(=O)N[C@@H](CC(N)=O)C(=O)N[C@@H]([C@@H](C)O)C(=O)N[C@@H](C)C(=O)N[C@@H]([C@@H](C)O)C(=O)N1)[C@@H](C)O)C(=O)N1CCC[C@H]1C(=O)N[C@@H](CO)C(=O)N[C@@H](CO)C(=O)N[C@H](C(=O)N[C@@H](CC(N)=O)C(=O)N[C@H](C(=O)NCC(=O)N1CCC[C@H]1C(=O)N[C@@H](CC(N)=O)C(=O)N[C@H](C(=O)N[C@@H](Cc1ccc(O)cc1)C(N)=O)[C@@H](C)O)C(C)C)[C@@H](C)O [Example 32] ({C20 diacid-γGlu}-KCNTATCATQRLAEFLRHSSPNFGAIPSSTNVGPNTY-NH2; disulfide 2-7),,,62%,7%,45 h,≥ 200 µM,≥ 200 µM,≥ 200 µM,≥ 200 µM,≥ 200 µM,≥ 200 µM,≥ 200 µM,≥ 200 µM
